Test results taken from publication PMC3927474, “Whole body synthesis rates of DHA from α-linolenic acid are greater than brain DHA accretion and uptake rates in adult rats” (Journal of Lipid Research, 2014).

Tests used:
Test in all cases: Brain gene expression (TLDA qPCR)
Assay type in all cases: in vivo, rat
Conditions in all cases: 15 wk diet; control diet = 1
15-lipoxygenase = tested on: 15-lipoxygenase
Description: (§1) RNA was extracted from the flash-frozen half brains of the 15 week postweaning rats. The brain was briefly thawed and dissected to isolate the brainstem, cerebellum, cortex, hippocampus, striatum, and the rest of the brain. RNA was extracted from the brain regions using Trizol reagent (Ambion; Life Technologies, Burlington, ON, Canada) according to the manufacturer's protocol. […] Chloroform was added to the Trizol reagent at a ratio of 1:5 (chloroform:Trizol reagent) and the solution was mixed and incubated at room temperature. The solution was then centrifuged at 12,000 g for 15 min at 4°C. […] The samples were then centrifuged at 12,000 g for 10 min at 4°C to precipitate the RNA pellet. […] The pellet was allowed to air dry, and was then dissolved in RNase-free water. A Nanodrop 1000 (NanoDrop Technologies Inc., Wilmington, DE) was used to determine the concentration and purity of each sample by measuring absorbance at 260 and 280 nm. Each sample was aliquoted to make 1 μg of RNA per 10 μl of sample and stored at -80°C. A high-capacity cDNA reverse transcription kit (Applied Biosystems, Burlington, ON, Canada) was used to reverse transcribe 1 μg of RNA according to the manufacturer's instructions. Newly synthesized cDNA was stored at -20°C until the following day when it was loaded onto TaqMan low density array (TLDA) plates. Quantitative real-time PCR was performed using TLDA (Applied Biosystems) on the 7900HT real-time PCR system (Applied Biosystems). cDNA (50 ng) was diluted with water to make a volume of 50 μl and mixed with 50 μl of TaqMan Universal PCR Master Mix (Applied Biosystems). The mixture was then loaded onto a customized preconfigured 384-well TLDA plate according to the manufacturer's protocol. TaqMan gene expression assays were used to assess 21 genes that were previously reported to be differentially expressed with n-3 deprivation. […] All genes were normalized to phosphoglycerate kinase 1. Similar results were found when normalizing to β-actin or 18S rRNA.

COX-2 = tested on: COX-2
Description: as §1

PPARg = tested on: PPARg
Description: as §1

[1] = tested on: brain-derived neurotrophic factor
Description: as §1

dopamine receptor D2 = tested on: dopamine receptor D2
Description: as §1

group 2a sPLA2 = tested on: group 2a sPLA2
Description: as §1

group 4 cPLA2 = tested on: group 4 cPLA2
Description: as §1

group 6 iPLA2 = tested on: group 6 iPLA2
Description: as §1

[2] = tested on: prostaglandin E synthase 3
Description: as §1

retinoic acid receptor α = tested on: retinoic acid receptor α
Description: as §1

retnoid X receptor β = tested on: retnoid X receptor β
Description: as §1

transthyretin = tested on: transthyretin
Description: as §1

tyrosine hydroxylase = tested on: tyrosine hydroxylase
Description: as §1

uncoupling protein 2 = tested on: uncoupling protein 2
Description: as §1

[3] = tested on: vesicular monoamine transporter 2
Description: as §1

α-synuclein = tested on: α-synuclein
Description: as §1

β-actin = tested on: β-actin
Description: as §1

Compound: CC/C=C\C/C=C\C/C=C\C/C=C\C/C=C\C/C=C\CCC(=O)O [DHA, Docosahexaenoic acid]
- Brainstem gene expression: 15 LOX (15-lipoxygenase): 1.68 RQ
- Cerebellum gene expression: 15 LOX (15-lipoxygenase): 1.35 RQ
- Cortex gene expression: 15 LOX (15-lipoxygenase): 1.04 RQ
- Hippocampus gene expression: 15 LOX (15-lipoxygenase): 0.96 RQ
- Rest of brain gene expression: 15 LOX (15-lipoxygenase): 1.07 RQ
- Striatum gene expression: 15 LOX (15-lipoxygenase): 1.46 RQ
- Brainstem gene expression: COX 2 (COX-2): 3.34 RQ
- Cerebellum gene expression: COX 2 (COX-2): 1.41 RQ
- Cortex gene expression: COX 2 (COX-2): 1.29 RQ
- Hippocampus gene expression: COX 2 (COX-2): 1.12 RQ
- Rest of brain gene expression: COX 2 (COX-2): 1.21 RQ
- Striatum gene expression: COX 2 (COX-2): 0.75 RQ
- Brainstem gene expression: PPARg (PPARg): 1.11 RQ
- Cerebellum gene expression: PPARg (PPARg): 1.07 RQ
- Cortex gene expression: PPARg (PPARg): 1.36 RQ
- Hippocampus gene expression: PPARγ (PPARg): 0.47 RQ
- Rest of brain gene expression: PPARg (PPARg): 1.14 RQ
- Striatum gene expression: PPARg (PPARg): 0.83 RQ
- Brainstem gene expression: BDNF [1]: 1.19 RQ
- Cerebellum gene expression: BDNF [1]: 0.88 RQ
- Cortex gene expression: BDNF [1]: 1.16 RQ
- Hippocampus gene expression: BDNF [1]: 1.13 RQ
- Rest of brain gene expression: BDNF [1]: 0.99 RQ
- Striatum gene expression: BDNF [1]: 2.10 RQ
- Brainstem gene expression: DR D2 (dopamine receptor D2): 0.88 RQ
- Cerebellum gene expression: DR D2 (dopamine receptor D2): 1.09 RQ
- Cortex gene expression: DR D2 (dopamine receptor D2): 1.12 RQ
- Hippocampus gene expression: DR D2 (dopamine receptor D2): 0.95 RQ
- Rest of brain gene expression: DR D2 (dopamine receptor D2): 1.05 RQ
- Striatum gene expression: DR D2 (dopamine receptor D2): 0.98 RQ
- Brainstem gene expression: sPLA2 (group 2a sPLA2): 1.10 RQ
- Cerebellum gene expression: sPLA2 (group 2a sPLA2): 0.98 RQ
- Cortex gene expression: spla2 (group 2a sPLA2): 1.17 RQ
- Hippocampus gene expression: sPLA2 (group 2a sPLA2): 0.93 RQ
- Rest of brain gene expression: sPLA2 (group 2a sPLA2): 1.17 RQ
- Striatum gene expression: sPLA2 (group 2a sPLA2): 0.68 RQ
- Brainstem gene expression: cPLA2 (group 4 cPLA2): 6.22 RQ
- Cerebellum gene expression: cPLA2 (group 4 cPLA2): 0.98 RQ
- Cortex gene expression: cPLA2 (group 4 cPLA2): 1.11 RQ
- Hippocampus gene expression: cPLA2 (group 4 cPLA2): 0.98 RQ
- Rest of brain gene expression: cPLA2 (group 4 cPLA2): 0.99 RQ
- Striatum gene expression: cPLA2 (group 4 cPLA2): 0.92 RQ
- Brainstem gene expression: iPLA2 (group 6 iPLA2): 1.10 RQ
- Cerebellum gene expression: iPLA2 (group 6 iPLA2): 1.00 RQ
- Cortex gene expression: iPLA2 (group 6 iPLA2): 1.09 RQ
- Hippocampus gene expression: iPLA2 (group 6 iPLA2): 1.05 RQ
- Rest of brain gene expression: iPLA2 (group 6 iPLA2): 1.10 RQ
- Striatum gene expression: iPLA2 (group 6 iPLA2): 0.90 RQ
- Brainstem gene expression: PGES3 [2]: 1.10 RQ
- Cerebellum gene expression: PGES3 [2]: 0.97 RQ
- Cortex gene expression: PGES3 [2]: 1.07 RQ
- Hippocampus gene expression: PGES3 [2]: 1.11 RQ
- Rest of brain gene expression: PGES3 [2]: 1.14 RQ
- Striatum gene expression: PGES3 [2]: 0.92 RQ
- Brainstem gene expression: RARa (retinoic acid receptor α): 1.52 RQ
- Cerebellum gene expression: RARa (retinoic acid receptor α): 1.08 RQ
- Cortex gene expression: RAR a (retinoic acid receptor α): 1.20 RQ
- Hippocampus gene expression: RAR a (retinoic acid receptor α): 0.97 RQ
- Rest of brain gene expression: RAR a (retinoic acid receptor α): 1.09 RQ
- Striatum gene expression: RARa (retinoic acid receptor α): 0.93 RQ
- Brainstem gene expression: RXRb (retnoid X receptor β): 1.29 RQ
- Cerebellum gene expression: RXRb (retnoid X receptor β): 0.96 RQ
- Cortex gene expression: RXR b (retnoid X receptor β): 1.05 RQ
- Hippocampus gene expression: RXR b (retnoid X receptor β): 1.07 RQ
- Rest of brain gene expression: RXR b (retnoid X receptor β): 1.12 RQ
- Striatum gene expression: RXRb (retnoid X receptor β): 1.02 RQ
- Brainstem gene expression: TTR (transthyretin): 0.46 RQ
- Cerebellum gene expression: TTR (transthyretin): 0.72 RQ
- Cortex gene expression: TTR (transthyretin): 1.49 RQ
- Hippocampus gene expression: TTR (transthyretin): 2.40 RQ
- Rest of brain gene expression: TTR (transthyretin): 1.08 RQ
- Striatum gene expression: TTR (transthyretin): 0.66 RQ
- Brainstem gene expression: TH (tyrosine hydroxylase): 0.98 RQ
- Cerebellum gene expression: TH (tyrosine hydroxylase): 1.23 RQ
- Cortex gene expression: TH (tyrosine hydroxylase): 1.11 RQ
- Hippocampus gene expression: TH (tyrosine hydroxylase): 1.01 RQ
- Rest of brain gene expression: TH (tyrosine hydroxylase): 1.18 RQ
- Striatum gene expression: TH (tyrosine hydroxylase): 1.19 RQ
- Brainstem gene expression: UCP2 (uncoupling protein 2): 1.08 RQ
- Cerebellum gene expression: UCP2 (uncoupling protein 2): 0.87 RQ
- Cortex gene expression: UCP2 (uncoupling protein 2): 1.02 RQ
- Hippocampus gene expression: UCP2 (uncoupling protein 2): 1.07 RQ
- Rest of brain gene expression: UCP2 (uncoupling protein 2): 1.20 RQ
- Striatum gene expression: UCP2 (uncoupling protein 2): 1.00 RQ
- Brainstem gene expression: VMAT2 [3]: 9.94 RQ
- Hippocampus gene expression: VMAT 2 [3]: 1.26 RQ
- Rest of brain gene expression: VMAT2 [3]: 1.08 RQ
- Brainstem gene expression: SNCa (α-synuclein): 2.25 RQ
- Cerebellum gene expression: SNCa (α-synuclein): 0.84 RQ
- Cortex gene expression: SNCa (α-synuclein): 1.15 RQ
- Hippocampus gene expression: SNCa (α-synuclein): 1.19 RQ
- Rest of brain gene expression: SNCa (α-synuclein): 1.09 RQ
- Striatum gene expression: SNCa (α-synuclein): 0.97 RQ
- Brainstem gene expression: b-actin (β-actin): 1.10 RQ
- Cerebellum gene expression: b actin (β-actin): 0.98 RQ
- Cortex gene expression: b actin (β-actin): 1.05 RQ
- Hippocampus gene expression: B-actin (β-actin): 1.12 RQ
- Rest of brain gene expression: b actin (β-actin): 1.08 RQ
- Striatum gene expression: b actin (β-actin): 0.92 RQ
